Experimental data reported in US7238716B2, “Alkanoic acid derivatives process for their production and use thereof” (Takeda Pharmaceuticals Company Limited, priority 2000, dated 2007).

First: COc1ccc(COc2ccccc2CC(=O)O)cc1OCc1nc(-c2ccccc2)oc1C [Example 49, 2-[2-[4-methoxy-3-[(5-methyl-2-phenyl-4-oxazolyl)methoxy]benzyloxy]phenyl]acetic acid]
Second: Cc1oc(-c2ccccc2)nc1COc1ccccc1COc1ccccc1CC(=O)O [Example 56, 2-[2-[2-[(5-methyl-2-phenyl-4-oxazolyl)methoxy]benzyloxy]phenyl]acetic acid]
The melting point of the first is higher: 154 to 155 °C for the first, 145 to 146 °C for the second.

First: Cc1oc(-c2ccccc2)nc1COc1ccc(COC(=O)Cc2cccc(OCc3ccc(OCc4nc(-c5ccccc5)oc4C)cc3)c2)cc1 [Example 53, 4-[(5-methyl-2-phenyl-4-oxazolyl)methoxy]benzyl 2-[3-[4-[(5-methyl-2-phenyl-4-oxazolyl)methoxy]benzyloxy]phenyl]acetate]
Second: Cc1oc(-c2ccccc2)nc1COc1cccc(COc2ccc(CC(=O)O)cc2)c1 [Example 68, 2-[4-[3-[(5-methyl-2-phenyl-4-oxazolyl)methoxy]benzyloxy]phenyl]acetic acid]
The melting point of the first is lower: 90 to 91 °C for the first, 179 to 180 °C for the second.

First: CCOC(=O)C=Cc1c(OCc2ccc(OCc3nc(-c4ccccc4)oc3C)cc2)ccc2ccccc12 [Example 54, ethyl 3-(2-(4-((5-methyl-2-phenyl-4-oxazolyl)methoxy)benzyloxy)-1-naphthyl)-2-propenoate]
Second: Cc1oc(-c2ccccc2)nc1COc1ccccc1COc1ccc(CC(=O)O)cc1 [Example 69, 2-[4-[2-[(5-methyl-2-phenyl-4-oxazolyl)methoxy]benzyloxy]phenyl]acetic acid]
The melting point of the first is lower: 73 to 74 °C for the first, 173 to 174 °C for the second.

Compared with `COC(=O)Cc1ccccc1OCc1ccc(N(Cc2nc(-c3ccccc3)oc2C)C(=O)OC(C)(C)C)cc1` [Example 59, methyl 2-[2-[4-[(t-butoxycarbonyl)[(5-methyl-2-phenyl-4-oxazolyl)methyl]amino]benzyloxy]phenyl]acetate], `COC(=O)Cc1ccccc1OCc1ccc(OCCc2nc(-c3ccccc3)oc2C)nc1` [Example 118, methyl 2-[2-[[6-[2-(5-methyl-2-phenyl-4-oxazolyl)ethoxy]-3-pyridyl]methoxy]phenyl]acetate] is lower in melting point: 85 to 86 °C for the first, 78 to 79 °C for the second.

First: Cc1oc(-c2ccccc2)nc1COc1cccc(COc2cccc(CC(=O)O)c2)n1 [Example 64, 2-[3-[[6-[(5-methyl-2-phenyl-4-oxazolyl)methoxy]-2-pyridyl]methoxy]phenyl]acetic acid]
Second: Cc1oc(-c2ccccc2)nc1COc1cccc(CSc2cccc(CC(=O)O)c2)c1 [Example 139, 2-[3-[3-[(5-methyl-2-phenyl-4-oxazolyl)methoxy]benzylthio]phenyl]acetic acid]
The melting point of the first is higher: 97 to 98 °C for the first, 81 to 82 °C for the second.

First: CCOC(=O)CCc1ccc(OCc2ccc(OCc3nc(-c4ccccc4)oc3C)cc2)cc1OCC [Example 65, ethyl 3-[2-ethoxy-4-[4-[(5-methyl-2-phenyl-4-oxazolyl)methoxy]benzyloxy]phenyl]propionate]
Second: CCOc1cc(OCc2ccccc2OCc2nc(-c3ccccc3)oc2C)ccc1CCC(=O)O [Example 73, 3-[2-ethoxy-4-[2-[(5-methyl-2-phenyl-4-oxazolyl)methoxy]benzyloxy]phenyl]propionic acid]
The melting point of the first is lower: 64 to 65 °C for the first, 112 to 113 °C for the second.

First: Cc1oc(-c2ccccc2)nc1COc1ccc(CSc2ccc(CCC(=O)O)cc2)cc1 [Example 67, 3-[4-[[4-[(5-methyl-2-phenyl-4-oxazolyl)methoxy]benzyl]sulfanyl]phenyl]propionic acid]
Second: Cc1oc(-c2ccccc2)nc1COc1cccc(CSc2cccc(CCC(=O)O)c2)c1 [Example 140, 3-[3-[3-[(5-methyl-2-phenyl-4-oxazolyl)methoxy]benzylthio]phenyl]propionic acid]
The melting point of the first is higher: 157 to 158 °C for the first, 120 to 121 °C for the second.

Compared with `Cc1oc(-c2ccccc2)nc1COc1cncc(COc2ccc(CC(=O)O)cc2)c1` [Example 75, 2-[4-[5-[(5-methyl-2-phenyl-4-oxazolyl)methoxy]-3-pyridylmethoxy]phenyl]acetic acid], `Cc1oc(-c2ccccc2)nc1COc1cccc(COc2cncc(CC(=O)O)c2)c1` [Example 76, 2-[5-[3-[(5-methyl-2-phenyl-4-oxazolyl)methoxy]benzyloxy]-3-pyridyl]acetic acid] is higher in melting point: 141 to 142 °C for the first, 158 to 159 °C for the second.

First: CCCc1oc(-c2ccccc2)nc1COc1ccc(COc2cccc(CC(=O)O)c2)cc1 [Example 87, 2-[3-[4-[(2-phenyl-5-propyl-4-oxazolyl)methoxy]benzyloxy]phenyl]acetic acid]
Second: Cc1oc(-c2ccccc2)nc1COc1cccc(CSc2ccc(CC(=O)O)cc2Cl)c1 [Example 142, 2-[3-chloro-4-[3-[(5-methyl-2-phenyl-4-oxazolyl)methoxy]benzylthio]phenyl]acetic acid]
The melting point of the first is lower: 115 to 116 °C for the first, 150 to 151 °C for the second.

First: Cc1oc(-c2ccccc2)nc1/C=C/c1ccc(COc2ccccc2CC(=O)O)cc1 [Example 95, 2-[2-[4-[(E)-2-(5-methyl-2-phenyl-4-oxazolyl)ethenyl]benzyloxy]phenyl]acetic acid]
Second: Cc1oc(-c2ccccc2)nc1CCOc1ccc(COc2ncccc2CC(=O)O)cc1 [Example 111, 2-[2-[4-[2-(5-methyl-2-phenyl-4-oxazolyl)ethoxy]benzyloxy]-3-pyridyl]acetic acid]
The melting point of the first is higher: 189 to 190 °C for the first, 134 to 135 °C for the second.

Compared with `Cc1oc(-c2ccccc2)nc1CCc1nc(COc2cccc(CC(=O)O)c2)cs1` [Example 105, 2-[3-[[2-[2-(5-methyl-2-phenyl-4-oxazolyl)ethyl]-4-thiazolyl]methoxy]phenyl]acetic acid], `Cc1oc(-c2ccccc2)nc1CCc1noc(COc2cccc(CC(=O)O)c2)n1` [Example 109, 2-[3-[[3-[2-(5-methyl-2-phenyl-4-oxazolyl)ethyl]-1,2,4-oxadiazol-5-yl]methoxy]phenyl]acetic acid] is lower in melting point: 153 to 154 °C for the first, 93 to 94 °C for the second.

First: COC(=O)Cc1ccccc1OCc1cc(OCc2nc(-c3ccccc3)sc2C)no1 [Example 113, methyl 2-[2-[[3-[(5-methyl-2-phenyl-4-thiazolyl)methoxy]-5-isoxazolyl]methoxy]phenyl]acetate]
Second: COC(=O)Cc1ccccc1OCc1cc(OCCc2nc(-c3ccccc3)sc2C)no1 [Example 116, methyl 2-[2-[[3-[2-(5-methyl-2-phenyl-4-thiazolyl)ethoxy]-5-isoxazolyl]methoxy]phenyl]acetate]
The melting point of the first is higher: 108 to 109 °C for the first, 80 to 81 °C for the second.

Compared with `Cc1sc(-c2ccccc2)nc1COc1cc(COc2ccccc2CC(=O)O)on1` [Example 114, 2-[2-[[3-[(5-methyl-2-phenyl-4-thiazolyl)methoxy]-5-isoxazolyl]methoxy]phenyl]acetic acid], `Cc1sc(-c2ccccc2)nc1CCOc1cc(COc2ccccc2CC(=O)O)on1` [Example 117, 2-[2-[[3-[2-(5-methyl-2-phenyl-4-thiazolyl)ethoxy]-5-isoxazolyl]methoxy]phenyl]acetic acid] is higher in melting point: 147 to 148 °C for the first, 159 to 160 °C for the second.

First: COC(=O)Cc1ccccc1OCc1ccc(OCc2nc(-c3ccccc3)sc2C)nc1 [Example 121, methyl 2-[2-[[6-[(5-methyl-2-phenyl-4-thiazolyl)methoxy]-3-pyridyl]methoxy]phenyl]acetate]
Second: COC(=O)Cc1cccc(OCc2ccc(OC)c(OCc3nc(-c4ccccc4)oc3C)c2)c1 [Example 131, methyl 3-[4-methoxy-3-[(2-phenyl-5-methyl-4-oxazolyl)methoxy]benzyloxy]phenylacetate]
The melting point of the first is higher: 119 to 120 °C for the first, 88 to 89 °C for the second.

First: CC(Nc1nc(-c2ccccc2)cs1)c1ccc(COc2ccc(CC(=O)O)cc2)cc1 (stereo not shown) [Example 128, 4-[4-[methyl(4-phenyl-2-thiazolyl)aminomethyl]benzyloxy]phenylacetic acid]
Second: Cc1oc(-c2ccccc2)nc1COc1ccc(COc2ncccc2C=CC(=O)O)cc1 [Example 134, 3-[2-[4-[(5-methyl-2-phenyl-4-oxazolyl)methoxy]benzyloxy]-3-pyridyl]propenoic acid]
The melting point of the first is lower: 116 to 118 °C for the first, 174 to 175 °C for the second.

`CCOC(=O)C=Cc1cccnc1OCc1ccc(OCc2nc(-c3ccco3)oc2C)c(OC)c1` [Example 135, ethyl 3-[2-[4-[[2-(2-furyl)-5-methyl-4-oxazolyl]methoxy]-3-methoxybenzyloxy]-3-pyridyl]propenoate] gave a melting point of 85 to 87 °C.
